Reference: a melting point compilation (Tetko et al.; mined from patent text by program, amines drawn as free bases though some values may be those of a salt)

Row | melting point | Structure (SMILES)
1 | 177 °C | ON=C1CCc2c(cccc2OCC(O)CN2CCN(C(c3ccccc3)c3ccccc3)CC2)C1 (stereo not given)
2 | 132 to 134 °C | CCOc1cc2oc(=O)c3c(c2cc1OCC)CCN(CCN1CC2CCC(CC2)C1)C3
3 | 160 °C | Cc1ccccc1NC(=O)CN(C(=O)CN1C(=O)c2ccccc2C1=O)c1ccccc1
4 | 92 to 98 °C | COc1cc(I)c(Cl)cc1C(=O)N1Cc2cccn2Cc2ccccc21
5 | 104 °C | COC(=O)c1cc(C(=O)N[C@@H](Cc2ccccc2)[C@H]2CN(C3(c4cccc(C(F)(F)F)c4)CC3)C(=O)O2)n2c1CN(S(C)(=O)=O)CC2
6 | 98 to 100 °C | Cc1ccc(OCc2ccccc2)c(C(=O)O)c1
7 | 106 °C | CC(=O)SC(CC(=O)c1ccc(Oc2ccccc2)cc1)C(=O)O (stereo not given)
8 | 161 to 163 °C | CCC(=O)Nc1ccc(C(=O)C=CN(C)C)cc1
9 | > 250 °C | O=C(Nc1cccc2c1ncc1c(=O)[nH]cnc12)c1c(Cl)cccc1Cl
10 | 123 to 125 °C | COC(C)(C)C(=O)Nc1ccc(Sc2nc(C)cc(C)n2)cc1
11 | 192 to 194 °C | NC(=O)c1ccc(-c2ccc(-c3ccn(C(CC(=O)OCc4ccccc4)C(=O)NC(CO)Cc4ccccc4)c3)cc2)cc1 (stereo not given)
12 | 131 to 133 °C | CN(C)C=C1CN=Cc2ccccc2C1=O
13 | 208 to 209 °C | O=C(OCC1OC(n2cc(F)c(=O)[nH]c2=O)C(OC(=O)c2ccccc2)C1OC(=O)c1ccccc1)c1ccccc1 (stereo not given)
14 | 193 to 194 °C | N#Cc1cc(-c2ccco2)nc(N)n1
15 | 130 to 132 °C | COCCOc1ccc(CCC(=O)NS(=O)(=O)CCC(C)C)c(Oc2ncc(C(F)(F)F)cc2Cl)c1
16 | 175 °C | O=C1CCc2cc(C(O)c3ccccc3)ccc2N1 (stereo not given)
17 | 90 to 95 °C | COc1ccc(C2CCC(OC(C)=O)CC2NC(=O)c2ccc(OCC3CC3)c(OCC3CC3)c2)cc1OC (stereo not given)
18 | 220 to 221 °C | NC(=O)c1ncn2c1CN(C(=O)N1CCOCC1)c1ccccc1-2
19 | 64 to 68 °C | CC(CCNc1cccc(-c2ccnc3c(C(=O)c4cccs4)cnn23)c1)c1ccccc1 (stereo not given)
20 | 173 to 175 °C | O=C(O)Cn1cc(C(=O)O)c(=O)c2cccc(Br)c(=O)c21
21 | 106 to 107 °C | COC(=O)CNc1ccc(OCc2ccccc2)cc1
22 | 291 to 292 °C | CC1(C)CCC(C)(C)c2cc3sc(-c4ccc(C(=O)O)cc4)cc3cc21
23 | 113 to 114 °C | Cc1cc([N+](=O)[O-])ccc1N1CCOCC1=O
24 | 84 to 89 °C | CCCCSC(=NC(C)=O)Nc1c(Cl)cccc1Cl
25 | 100 °C | CNC(=S)N1CCN=C1COc1cccc(C)c1C
26 | 90 to 91 °C | CC(CC1CCCCC1)N(C)C(=O)COCC(=O)O (stereo not given)

Row | melting point | Structure (SMILES)
27 | 79.5 to 81 °C | O=C(O)Cc1cc(Br)ccc1OCCCc1ccccc1
28 | 179 to 182 °C | Cn1c(S)nc(-c2ccccc2)c1-c1ccccc1
29 | 177 to 178 °C | c1ccc(C2=NN=C(c3ccccc3)NN2)cc1
30 | 198 to 200 °C | COc1ccc(NC(=S)Nc2ccc(NNC=O)cc2)cc1
31 | 68 to 70 °C | Cc1csc(C)c1N(N)C(=O)CN
32 | 148 to 150 °C | CSc1cccc(Cc2sc(NC(C)=O)nc2C=O)c1
33 | 156 °C | COc1ccc(C(=O)CC2CCN(CCn3c(=O)[nH]c4ccccc43)CC2)cc1
34 | 73 to 75 °C | CCOC(=O)c1cnc2c(c(C)nc3cc(C)nn32)c1NCCCN(C)C
35 | 184 to 187 °C | Cc1csc(C)c1NCc1nnc(S)n1C
36 | 179 to 181 °C | CCCc1nc2c(N)nc3ccccc3c2n1CCCCCS(C)(=O)=O
37 | 189 to 191 °C | COc1ccc(Cl)cc1N1C(=O)CON(C)C1=S
38 | 226 to 228 °C | CC(C=CC=C(C)c1cc2c(s1)C(C)(C)CCC2(C)C)=CC(=O)O
39 | 230 °C | CC(=O)Nc1ccc(OCC2CO2)c(C(=O)Nc2cccc3[nH]ccc23)c1 (stereo not given)
40 | 88 to 89 °C | CCOC(=O)CCCCCCCn1c(=O)[nH]c2ccccc2c1=O
41 | 79 to 80 °C | CSC(=C[N+](=O)[O-])NCCSCc1ncccc1Br
42 | 111 °C | CCc1ccc(C(=O)O)c([N+](=O)[O-])c1
43 | 157 to 159 °C | COc1ccc(Cn2ccnc2)cc1
44 | 294 to 296 °C | CN1Cc2c(C(N)=O)ncn2-c2ccsc2C1=O
45 | 48 to 50 °C | Cn1ccc(C(=O)c2ccc(Cl)cc2)c1
46 | 151 to 152 °C | CCOC(=O)/C(=N\OC1CCSC1)c1csc(N)n1 (stereo not given)
47 | 245 °C | CS(=O)(=O)c1ccc(-c2oc(C(=O)O)cc(=O)c2Oc2ccc(F)cc2F)cc1
48 | 72 °C | O=C(Oc1ccccc1)N1Cc2ccccc2C(Oc2ccc(C(F)(F)F)cc2)C1 (stereo not given)
49 | 137 °C | CN(CCO)Cc1ccc(-c2ccc(N3C[C@H](Cn4ccnn4)OC3=O)cc2F)cn1
50 | 166 to 168 °C | CCOc1csc2ccc(C(=O)c3cnoc3C3CC3)c(SC)c12
51 | 138 to 139 °C | CC(=O)NC12CCCC(C1)C1CCC2C1 (stereo not given)
52 | 225 to 226 °C | CC(=O)Nc1cccc(-c2nc3n(n2)CCc2ccccc2-3)c1

Row | melting point | Structure (SMILES)
53 | 126 °C | CC(C)Oc1cccc(C(CC(=O)O)NS(=O)(=O)c2ccc3ccccc3c2)c1 (stereo not given)
54 | 178 to 180 °C | Cn1c(-c2ccccc2Nc2cccc(C(F)(F)F)c2)n[nH]c1=O
55 | 154 to 157 °C | COC(=O)[C@H](Cc1ccc(NC(=O)c2c(C)cccc2Cl)cc1)NC(=O)OC(C)(C)C
56 | 128 to 129 °C | CCCCC1(CCCC)CCc2c(OCc3ccc4ccccc4n3)ccc(F)c2C1O (stereo not given)
57 | 171 to 172 °C | COc1ccc(CCOc2nccc(-c3cccc(C(=O)O)c3)n2)cc1OC
58 | 97 to 99 °C | NS(=O)(=O)CC(=O)c1ccccc1
59 | > 300 °C | CCn1cc(C(=O)O)c(=O)c2cc(F)c(N3CCSCC3)c(F)c21
60 | 74 to 75 °C | CCCCC(CC)Cn1c(=O)nc(N(C)C)n(C)c1=O (stereo not given)
61 | 221 to 222 °C | Cc1c(CCO)c(=O)oc2c(O)c(O)ccc12
62 | 168 °C | CC(=O)OC1CSC(Oc2cncc(-c3cc4ccccc4s3)c2)C(OC(C)=O)C1OC(C)=O (stereo not given)
63 | 151 to 152 °C | CCOc1nc2c(cnn2CC)nc1C(=O)Nc1nccs1
64 | 228 to 230 °C | O=C(CCn1cnc2c(=O)[nH]cnc21)NC1CCSC1=O (stereo not given)
65 | 142 to 144 °C | O=C(NCCCN1CCC(c2ccccn2)CC1)N1C(=O)OCC1c1ccc(F)c(F)c1 (stereo not given)
66 | 180 °C | Cn1cc(C(O)c2cccc(Cl)c2)cc1C(=O)O (stereo not given)
67 | 226 to 228 °C | COCCCC(=O)c1cc(C(=O)O)c2cc(Cc3ccc(F)cc3)cnc2c1O
68 | 79 to 83 °C | CC(C)(C)c1ccc(N2CCOCC2)c(NP(=O)(O)O)c1
69 | 130 to 136 °C | C#CCNC(=S)NC1CCC(=O)c2sccc21 (stereo not given)
70 | 160 to 162 °C | COc1ccc(C(=O)c2ccc(NC(C)=O)cc2)cc1
71 | 71 to 74 °C | O=C(NCc1ccc(Cl)cc1)c1cn2c(CO)cc3cc(CC4CCOCC4)cc(c1=O)c32
72 | 138 to 140 °C | CC(C)c1cccc(C(C)C)c1NC(=O)CN1CCN(CCSc2nc3cccc(C(C)(C)C)c3o2)CC1
73 | 181 to 183 °C | C=CCOC(=O)C(C#N)=C1Nc2ccccc2O1
74 | 289 to 290 °C | Cn1ncc2c(=O)[nH]cnc21
75 | 230 to 237 °C | COc1cc2nc(N3CCc4c(cccc4S(=O)(=O)N4CCN(C)CC4)C3)[nH]c(=O)c2cc1OC
76 | 138 °C | CCOC(=O)CC(CCCCNC(=O)c1sc(NC(=N)N)nc1C)c1ccccc1 (racemic)
77 | 93 to 96 °C | COC(=O)CCc1cc2cc(Cl)ccc2n1S(=O)(=O)c1ccccc1
78 | 78 to 80 °C | O=C(NCC1Cc2cccc(-c3ccc(F)cc3F)c2O1)OCc1ccccc1 (stereo not given)

Row | melting point | Structure (SMILES)
79 | 152 to 153 °C | CCCCc1oc2ccc(C(=O)OC)cc2c1C(=O)c1ccc(O)cc1
80 | 128 to 130 °C | CCOc1nc2c(cnn2CC)nc1C(=O)O
81 | 90 to 91 °C | CCNS(=O)(=O)c1ccc(NC(C)=O)cc1
82 | 131 to 138 °C | O=C(/C=C/c1ccc(O)cc1)CC(=O)/C=C/c1ccc(O)cc1Cl
83 | 200 to 205 °C | CC(O)=C1SC(=S)N(c2ccc(Cl)cc2)C1=O
84 | 202 to 204 °C | O=C(O)c1cccc2cc3ccccc3nc12
85 | 189 °C | NNC(=O)c1ncn2ccccc12
86 | 102 to 103 °C | CCOC(=O)c1cc2n(c1)C(C)Nc1ccccc1-2 (stereo not given)
87 | 164 to 166 °C | Cc1nc(N2CCc3ccccc3CC2)c(C#N)c(=O)n1N(C)C(=O)OC(C)(C)C
88 | 140 to 142 °C | CCOC(=O)c1ccc(N2CCC(NCC(O)COc3cccc([N+](=O)[O-])c3N)CC2)nc1 (stereo not given)
89 | 87 to 89 °C | O=[N+]([O-])c1cc(F)ccc1N1CCc2ccccc21
90 | 160 °C | Cc1cc(C)n(C(=O)C(NS(=O)(=O)c2ccc(Cl)cc2)c2ccccc2)n1 (stereo not given)
91 | 180 to 188 °C | COc1ccc(S(=O)(=O)C(CCCCc2ccccc2)C(=O)NO)cc1OC (stereo not given)
92 | 158 to 160 °C | C/C(=C/C(=O)N(C)O)c1ccn(-c2c(C)cccc2C)c1
93 | 34 to 35 °C | CCOC(=O)/C=C\C=C(c1ccccc1)c1ccccc1
94 | 107 to 109 °C | CC(=Cc1ccc(F)cc1)CNC(=O)c1ccc(F)cc1
95 | 128 to 129 °C | CC(C)Nc1nccc(C#Cc2ccc(F)cc2)n1
96 | 95.5 to 96.5 °C | CCCCCCCCC#CCCCCCCCC(=O)Nc1nc(CC(=O)O)cs1
97 | 169 to 170 °C | CC(C)n1nc(-c2sc(C(=O)NN(C)C)nc2-c2ccc(F)cc2)ccc1=O
98 | 128 °C | CC(C)NCC(O)COC1c2ccccc2C(=O)N1c1cccc(Cl)c1 (stereo not given)
99 | 108 °C | Cn1c(Cl)cccc1=O
100 | 168 to 169 °C | COc1cccc(C(=O)C=CC2=CCC(OC)(N(C)C)C=C2)c1OC (stereo not given)
101 | 99 to 101 °C | COC(=O)c1ccc(Cl)cc1NC(=O)CSc1ccccc1Br
102 | 118 °C | Clc1ccc(-c2ccc(C(Cl)Cn3cncn3)cc2)cc1 (stereo not given)
103 | 81.9 to 82.3 °C | Cc1c(C(F)(F)F)nc2c(C(F)(F)F)cccc2c1Br

Row | Structure (SMILES) | melting point
104 | CCOc1cc2c(cc1OCC)C(c1cccc(N)c1)=NN=C(C)C2 | 133 to 134 °C
105 | COC(=O)C(C)=CC1C(C(=O)OC(C)(C)N2C(=O)C=CC2=O)C1(C)C (stereo not given) | 98.7 °C
